Tests used:
peritoneal cancer = conditions: intraperitoneal administration in patients; cited from earlier work
[1] = test system: multiple human tumor cells; conditions: treatment for 3 hours; cited from earlier work
PANC1 = test: cytotoxicity of paclitaxel, MTT assay; assay type: cell-based; conditions: Homo sapiens, PANC-1, read-out: concentration required to produce 50% cytotoxicity (IC50), 96 hour treatment, dissolved in water
Protocol: (§1) Drug effect was measured using the microtetrazolium dye reduction (MTT) assay.

MIA-PaCa = test: cytotoxicity of paclitaxel, MTT assay; assay type: cell-based; conditions: Homo sapiens, MIA PaCa-2, read-out: concentration required to produce 50% cytotoxicity (IC50), 96 hour treatment, dissolved in water
Protocol: as §1

Hs766T = test: cytotoxicity of paclitaxel, MTT assay; assay type: cell-based; conditions: Homo sapiens, read-out: concentration required to produce 50% cytotoxicity (IC50), 96 hour treatment, dissolved in water
Protocol: as §1

[2] = test system: Human RT4 bladder transitional bladder cancer cells; test: cytotoxicity in RT4 cells, sulforhodamine B assay; assay type: cell-based
[3] = retention of PLGA microparticles in peritoneal cavity; assay type: in vivo, mice; conditions: intraperitoneal administration; at 24 hours
Excerpt: Localization and disposition of PLGA microparticles within the peritoneal cavity after intraperitoneal administration was studied using rhodamine-loaded fluorescence microparticles. The disposition was compared with that of rhodamine in solution.

For N.N.[Cl][Pt][Cl] [cisplatin], the “extension of survival time” value (peritoneal cancer) is listed as “about 20%”.
For CC(=O)O[C@H]1C(=O)[C@@]2(C)[C@H]([C@H](OC(=O)c3ccccc3)[C@]3(O)C[C@H](OC(=O)[C@H](O)[C@@H](NC(=O)c4ccccc4)c4ccccc4)C(C)=C1C3(C)C)[C@]1(OC(C)=O)CO[C@@H]1C[C@@H]2O [paclitaxel], the “concentration sufficient to induce apoptosis” value [1] is listed as 200 nM, the IC50 (PANC1) is listed as 1.5 nM and the IC50 (MIA-PaCa) is listed as 0.7 nM. For the same compound, the IC50 (Hs766T) was 0.7 nM, the IC50 ([2]; RT-4, 48 h, RT4, 48 hour treatment, immediate effect) was 11 ± 0.4 nM and the IC50 ([2]; RT-4, 96 h, RT4, 96 hour treatment, immediate effect) was 4 ± 0.4 nM. It also gave an IC50 ([2]; RT-4, RT4, 15 minute treatment, delayed effect measured at 96 hours) of 157 ± 6.6 nM and an IC50 ([2]; RT-4, RT4, 2 hour treatment, delayed effect measured at 96 hours) of 33 ± 4.8 nM.
In the case of CCN(CC)c1ccc2c(-c3ccccc3C(=O)O)c3ccc(=[N+](CC)CC)cc-3oc2c1 [rhodamine in solution, rhodamine], the “localization in the peritoneal cavity (fluorescence)” value [3] is reported as “could no longer be observed in the peritoneal cavity”.

Reference: patent US20060034925A1, “Tumor targeting drug-loaded particles” (priority 2004, published 2006)
